Patent US10526345B2, “Compounds as GPR119 agonists” (Mankind Pharma Ltd., priority 2016, dated 2020)

Biological target: T1, hGPR119 (Homo sapiens, UniProt Q8TDV5)
T1 construct: expressed in transfected cells; host or cells: CHO
T1 sequence (Q8TDV5 1-335): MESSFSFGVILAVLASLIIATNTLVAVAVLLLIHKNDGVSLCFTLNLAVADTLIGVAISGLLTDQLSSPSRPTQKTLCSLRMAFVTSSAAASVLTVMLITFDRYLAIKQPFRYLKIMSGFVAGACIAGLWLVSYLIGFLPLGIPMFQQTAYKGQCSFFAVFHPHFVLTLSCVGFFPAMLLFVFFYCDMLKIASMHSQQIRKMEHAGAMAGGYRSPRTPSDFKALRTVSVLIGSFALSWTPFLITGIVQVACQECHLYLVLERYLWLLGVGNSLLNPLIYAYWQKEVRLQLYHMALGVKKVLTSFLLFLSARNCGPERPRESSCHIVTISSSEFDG
Assay: In vitro cyclic AMP assay (Cisbio dynamic 2 HTRF kit) in CHO-hGPR119 cells
Format: cell-based
Conditions: 1 h, cAMP, compound at 1 μM, 60 min, read-out: Induction (% induction at 1 μM)
Method: cAMP measurements were done using Cisbio dynamic 2 HTRF kit according to the manufacturer's protocol. Briefly, CHO-hGPR119 cells were plated at a cell density of 5000 cells/well/5 μl into a white small volume 384 well plate. The final concentrations of IBMX and DMSO used were 1 mM and 0.5% respectively. Cells were treated with various concentrations of the test compound for 60 min at room temperature. Cells were lysed by buffer containing Anti-cAMP antibody and d2-cAMP reagents and incubated for 1 hour at room temperature. HTRF was measured at 337 nm excitation and emission wavelengths of 665 nm and 620 nm on a microplate reader (Flurostar, BMG Labtech). Graphpad prism software was utilized for EC50 determinations.

Compound	activation at 1 µM [%]
Cc1ccc(S(=O)(=O)N2CC=C(c3nc4ccc(-c5ccc(S(C)(=O)=O)cc5)nc4s3)CC2)cc1 [Compound 1026, 5-(4-(methylsulfonyl)phenyl)-2-(1-tosyl-1,2,3,6-tetrahydropyridin-4-yl)thiazolo[5,4-b]pyridine]	5
CN(C)C(=O)N1CC=C(c2nc3ccc(-c4ccc(S(C)(=O)=O)cc4)nc3s2)CC1 [Compound 1027, N,N-dimethyl-4-(5-(4-(methylsulfonyl)phenyl)thiazolo[5,4-b]pyridin-2-yl)-5,6-dihydropyridine-1(2H)-carboxamide]	3
CN(C)C(=O)N1CCC(c2nc3ccc(-c4ccc(S(C)(=O)=O)cc4)nc3s2)CC1 [Compound 1028, N,N-dimethyl-4-(5-(4-(methylsulfonyl)phenyl)thiazolo[5,4-b]pyridin-2-yl)piperidine-1-carboxamide]	2
CC(C)c1noc(C2CCN(c3nc4ccc(-c5ccc(C(=O)N6CCOCC6)cc5)nc4s3)CC2)n1 [Compound 1029, (4-(2-(4-(3-isopropyl-1,2,4-oxadiazol-5-yl)piperidin-1-yl)thiazolo[5,4-b]pyridin-5-yl)phenyl)(morpholino)methanone]	47
CC(C)OC(=O)N1CC=C(CCOc2nc3ccc(-c4ccc(S(C)(=O)=O)cc4)nc3s2)CC1 [Compound 1034, isopropyl 4-(2-((5-(4-(methylsulfonyl)phenyl)thiazolo[5,4-b]pyridin-2-yl)oxy)ethyl)-5,6-dihydropyridine-1(2H)-carboxylate]	0.3
Cc1cc(-c2ccc(S(C)(=O)=O)cc2)nc2sc(OC(C)C3CCN(c4nc(C(C)C)no4)CC3)nc12 (centres unmarked) [Compound 1037, 3-isopropyl-5-(4-(1-((7-methyl-5-(4-(methylsulfonyl)phenyl)thiazolo[5,4-b]pyridin-2-yl)oxy)ethyl)piperidin-1-yl)-1,2,4-oxadiazole]	18
Cc1cc(-c2ccc(S(C)(=O)=O)cc2)nc2sc(OCC3CCN(c4nc(C(C)C)no4)CC3)nc12 [Compound 1038, 3-isopropyl-5-(4-(((7-methyl-5-(4-(methylsulfonyl)phenyl)thiazolo[5,4-b]pyridin-2-yl)oxy)methyl)piperidin-1-yl)-1,2,4-oxadiazole]	11
Cc1cc2nc(OC(C)C3CCN(c4nc(C(C)C)no4)CC3)sc2nc1-c1ccc(S(C)(=O)=O)cc1 (centres unmarked) [Compound 1039, 3-isopropyl-5-(4-(1-((6-methyl-5-(4-(methylsulfonyl)phenyl)thiazolo[5,4-b]pyridin-2-yl)oxy)ethyl)piperidin-1-yl)-1,2,4-oxadiazole]	20
CC(C)c1noc(N2CCC([C@H](C)Oc3nc4ccc(-c5ccc(C(=O)N(C)C)cc5)nc4s3)CC2)n1 [Compound 1045, (S)-4-(2-(1-(1-(3-isopropyl-1,2,4-oxadiazol-5-yl)piperidin-4-yl)ethoxy)thiazolo[5,4-b]pyridin-5-yl)-N,N-dimethylbenzamide]	31
CC(C)c1noc(N2CCC(C(C)Oc3nc4ccc(-c5ccc(C(=O)N(C)C)cc5F)nc4s3)CC2)n1 (centres unmarked) [Compound 1046, 3-fluoro-4-(2-(1-(1-(3-isopropyl-1,2,4-oxadiazol-5-yl)piperidin-4-yl)ethoxy)thiazolo[5,4-]pyridin-5-yl)-N,N-dimethylbenzamide]	1
CC(Oc1nc2ccc(-c3ccc(S(C)(=O)=O)cc3)nc2s1)C1CCN(c2nc(C3CC3)no2)CC1 (centres unmarked) [Compound 1048, 3-cyclopropyl-5-(4-(1-((5-(4-(methylsulfonyl)phenyl)thiazolo[5,4-b]pyridin-2-yl)oxy)ethyl)piperidin-1-yl)-1,2,4-oxadiazole]	57
CC(C)c1noc(N2CCC(C(C)Oc3nc4ccc(-c5ccc(C(=O)NC6CC6)cc5)nc4s3)CC2)n1 (centres unmarked) [Compound 1049, N-cyclopropyl-4-(2-(1-(1-(3-isopropyl-1,2,4-oxadiazol-5-yl)piperidin-4-yl)ethoxy)thiazolo[5,4-b]pyridin-5-yl)benzamide]	14
COCCNC(=O)c1ccc(-c2ccc3nc(OC(C)C4CCN(c5nc(C(C)C)no5)CC4)sc3n2)cc1 (centres unmarked) [Compound 1050, 4-(2-(1-(1-(3-isopropyl-1,2,4-oxadiazol-5-yl)piperidin-4-yl)ethoxy)thiaozlo[5,4-b]pyridin-5-yl)-N-(2-methoxyethyl)benzamide]	16
CC(C)c1noc(N2CCC(C(C)Oc3nc4ccc(-c5ccc(C(=O)N6CCOCC6)cc5)nc4s3)CC2)n1 (centres unmarked) [Compound 1051, (4-(2-(1-(1-(3-isopropyl-1,2,4-oxadiazol-5-yl)piperidin-4-yl)ethoxy)thiazolo[5,4-b]pyridin-5-yl)phenyl)(morpholino)methanone]	24
CC(C)c1noc(N2CCC(C(C)Oc3nc4ccc(-c5ccc(C(=O)N(C)C6CC6)cc5)nc4s3)CC2)n1 (centres unmarked) [Compound 1052, N-cyclopropyl-4-(2-(1-(1-(3-isopropyl-1,2,4-oxadiazol-5-yl)piperidin-4-yl)ethoxy)thiazolo[5,4-b]pyridin-5-yl)-N-methylbenzamide]	13
CCCc1cnc(N2CCC(C(C)Oc3nc4ccc(-c5ccc(S(C)(=O)=O)cc5)nc4s3)CC2)nc1 (centres unmarked) [Compound 1053, 5-(4-(methyslulfonyl)phenyl)-2-(1-(1-(5-propylpyrimidin-2-yl)piperidin-4-yl)ethoxy)thiazolo[5,4-b]pyridine]	73
CCc1cnc(N2CCC(C(C)Oc3nc4ccc(-c5ccc(S(C)(=O)=O)cc5)nc4s3)CC2)nc1 (centres unmarked) [Compound 1055, 2-(1-(1-(5-ethylpyrimidin-2-yl)piperidin-4-yl)ethoxy)-5-(4-(methylsulfonyl)phenyl)thiazolo[5,4-b]pyridine]	76
CC(C)OC(=O)N1CCC(C(C)Oc2nc3ccc(-c4ccc(S(C)(=O)=O)cc4)nc3s2)CC1 (centres unmarked) [Compound 1056, isopropyl 4-(1-((5-(4-(methylsulfonyl)phenyl)thiazolo[5,4-b]pyridin-2-yl)oxy)ethyl)piperidine-1-carboxylate]	51
CC(C)c1nc(N2CCC(C(C)Oc3nc4ccc(-c5ccc(S(C)(=O)=O)cc5)nc4s3)CC2)no1 (centres unmarked) [Compound 1058, 5-isopropyl-3-(4-(1-((5-(4-(methylsulfonyl)phenyl)thiazolo[5,4-b]pyridin-2-yl)oxy)ethyl)piperidin-1-yl)-1,2,4-oxadiazole]	48

The remaining lines, values ahead:

activation at 1 µM [%]	Compound
76	CC(C)c1noc(N2CCC([C@H](C)Oc3nc4ccc(-c5ccc(S(C)(=O)=O)cc5)nc4s3)CC2)n1 [Compound 1031, (S)-3-isopropyl-5-(4-(1-((5-(4-(methylsulfonyl)phenyl)thiazolo[5,4-b]pyridin-2-yl)oxy)ethyl)piperidin-1-yl)-1,2,4-oxadiazole]
13	CC(C)c1noc(N2CCC([C@@H](C)Oc3nc4ccc(-c5ccc(S(C)(=O)=O)cc5)nc4s3)CC2)n1 [Compound 1032, (R)-3-isopropyl-5-(4-(1-((5-(4-(methylsulfonyl)phenyl)thiazolo[5,4-b]pyridin-2-yl)oxy)ethyl)piperidin-1-yl)-1,2,4-oxadiazole]
2	CC(C)c1noc(N2CC=C(CCOc3nc4ccc(-c5ccc(S(C)(=O)=O)cc5)nc4s3)CC2)n1 [Compound 1035, 3-isopropyl-5-(4-(2-((5-(4-(methylsulfonyl)phenyl)thiazolo[5,4-b]pyridin-2-yl)oxy)ethyl)-5,6-dihydropyridin-1(2H)-yl)-1,2,4-oxadiazole]
47	COCC(Oc1nc2ccc(-c3ccc(S(C)(=O)=O)cc3)nc2s1)C1CCN(c2nc(C(C)C)no2)CC1 (centres unmarked) [Compound 1036, 3-isopropyl-5-(4-(2-methoxy-1-((5-(4-(methylsulfonyl)phenyl)thiazolo[5,4-b]pyridin-2-yl)oxy)ethyl)piperidin-1-yl)-1,2,4-oxadiazole]
48	CC(C)c1noc(N2CCC(C(Oc3nc4ccc(-c5ccc(S(C)(=O)=O)cc5)nc4s3)C3CC3)CC2)n1 (centres unmarked) [Compound 1040, 5-(4-(cyclopropyl((5-(4-(methylsulfonyl)phenyl)thiazolo[5,4-b]pyridin-2-yl)oxy)methyl)piperidin-1-yl)-3-isopropyl-1,2,4-oxadiazole]
4	CC(CC1CCN(c2nc(C(C)C)no2)CC1)Oc1nc2ccc(-c3ccc(S(C)(=O)=O)cc3)nc2s1 (centres unmarked) [Compound 1043, 3-isopropyl-5-(4-(2-((5-(4-(methylsulfonyl)phenyl)thiazolo[5,4-b]pyridin-2-yl)oxy)propyl)piperidin-1-yl)-1,2,4-oxadiazole]
3	CC(C=C1CCN(c2nc(C(C)C)no2)CC1)Oc1nc2ccc(-c3ccc(S(C)(=O)=O)cc3)nc2s1 (centres unmarked) [Compound 1044, 3-isopropyl-5-(4-(2-((5-(4-(methylsulfonyl)phenyl)thiazolo[5,4-b]pyridin-2-yl)oxy)propylidene)piperidin-1-yl)-1,2,4-oxadiazole]
39	CC(C)c1noc(N2CCC(Oc3nc4ccc(-c5ccc(S(C)(=O)=O)cc5)nc4s3)C(F)C2)n1 (centres unmarked) [Compound 1060, 5-(3-fluoro-4-((5-(4-(methylsulfonyl)phenyl)thiazolo[5,4-b]pyridin-2-yl)oxy)piperidin-1-yl)-3-isopropyl-1,2,4-oxadiazole]

Same assay, conditions: cAMP

Compound	EC50 [nM]
CC(C)c1noc(N2CCC([C@H](C)Oc3nc4ccc(-c5ccc(S(C)(=O)=O)cc5)nc4s3)CC2)n1 [Compound 1031, (S)-3-isopropyl-5-(4-(1-((5-(4-(methylsulfonyl)phenyl)thiazolo[5,4-b]pyridin-2-yl)oxy)ethyl)piperidin-1-yl)-1,2,4-oxadiazole]	50 to 100
CCCc1cnc(N2CCC(C(C)Oc3nc4ccc(-c5ccc(S(C)(=O)=O)cc5)nc4s3)CC2)nc1 (centres unmarked) [Compound 1053, 5-(4-(methyslulfonyl)phenyl)-2-(1-(1-(5-propylpyrimidin-2-yl)piperidin-4-yl)ethoxy)thiazolo[5,4-b]pyridine]	50 to 100
